pIC50: −log10 of the molar value.

These results are taken from patent publication US9399647B2, “Proteasome activity modulating compounds” (Proteostasis Therapeutics, Inc., priority 2012, dated 2016).

The target of one assay is USP14 (Homo sapiens, UniProt P54578). In words: USP14 inhibition assay.
Chain of USP14 (P54578 whole entry): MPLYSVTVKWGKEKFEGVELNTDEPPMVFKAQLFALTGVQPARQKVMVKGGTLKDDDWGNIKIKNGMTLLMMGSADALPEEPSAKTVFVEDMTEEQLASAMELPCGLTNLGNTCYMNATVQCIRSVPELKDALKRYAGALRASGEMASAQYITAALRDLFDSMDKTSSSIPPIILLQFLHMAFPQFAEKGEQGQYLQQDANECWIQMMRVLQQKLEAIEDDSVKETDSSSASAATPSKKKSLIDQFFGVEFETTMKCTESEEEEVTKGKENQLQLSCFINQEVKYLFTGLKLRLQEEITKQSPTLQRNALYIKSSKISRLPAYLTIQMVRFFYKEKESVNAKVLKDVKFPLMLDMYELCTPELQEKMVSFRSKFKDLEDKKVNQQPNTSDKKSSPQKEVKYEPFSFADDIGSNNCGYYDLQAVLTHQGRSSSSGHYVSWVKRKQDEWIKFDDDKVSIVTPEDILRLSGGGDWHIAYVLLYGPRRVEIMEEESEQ
Chain of USP14 (Q13200 whole entry partner): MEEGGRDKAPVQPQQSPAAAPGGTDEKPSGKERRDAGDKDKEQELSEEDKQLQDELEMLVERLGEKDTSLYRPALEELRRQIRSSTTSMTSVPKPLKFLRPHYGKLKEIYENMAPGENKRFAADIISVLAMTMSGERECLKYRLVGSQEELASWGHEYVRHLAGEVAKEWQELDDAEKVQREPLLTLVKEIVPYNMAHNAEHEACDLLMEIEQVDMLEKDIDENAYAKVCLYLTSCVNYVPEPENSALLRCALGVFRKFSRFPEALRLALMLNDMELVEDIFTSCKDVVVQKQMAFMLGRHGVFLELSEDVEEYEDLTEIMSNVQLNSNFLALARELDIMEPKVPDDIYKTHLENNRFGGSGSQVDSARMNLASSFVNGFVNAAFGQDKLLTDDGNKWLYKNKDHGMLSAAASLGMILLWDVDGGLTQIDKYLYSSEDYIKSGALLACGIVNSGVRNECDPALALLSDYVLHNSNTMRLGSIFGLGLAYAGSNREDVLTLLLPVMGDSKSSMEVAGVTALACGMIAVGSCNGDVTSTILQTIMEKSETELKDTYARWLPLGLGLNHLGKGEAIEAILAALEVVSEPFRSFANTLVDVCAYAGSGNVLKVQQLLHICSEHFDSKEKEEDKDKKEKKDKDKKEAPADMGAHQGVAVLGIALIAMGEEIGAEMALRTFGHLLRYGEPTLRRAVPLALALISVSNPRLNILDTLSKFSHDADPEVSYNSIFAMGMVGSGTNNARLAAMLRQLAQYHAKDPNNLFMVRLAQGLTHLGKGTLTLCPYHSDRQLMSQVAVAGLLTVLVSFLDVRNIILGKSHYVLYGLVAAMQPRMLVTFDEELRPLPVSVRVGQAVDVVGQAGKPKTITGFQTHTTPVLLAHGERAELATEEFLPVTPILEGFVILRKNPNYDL
Chain of USP14 (P35998 whole entry partner): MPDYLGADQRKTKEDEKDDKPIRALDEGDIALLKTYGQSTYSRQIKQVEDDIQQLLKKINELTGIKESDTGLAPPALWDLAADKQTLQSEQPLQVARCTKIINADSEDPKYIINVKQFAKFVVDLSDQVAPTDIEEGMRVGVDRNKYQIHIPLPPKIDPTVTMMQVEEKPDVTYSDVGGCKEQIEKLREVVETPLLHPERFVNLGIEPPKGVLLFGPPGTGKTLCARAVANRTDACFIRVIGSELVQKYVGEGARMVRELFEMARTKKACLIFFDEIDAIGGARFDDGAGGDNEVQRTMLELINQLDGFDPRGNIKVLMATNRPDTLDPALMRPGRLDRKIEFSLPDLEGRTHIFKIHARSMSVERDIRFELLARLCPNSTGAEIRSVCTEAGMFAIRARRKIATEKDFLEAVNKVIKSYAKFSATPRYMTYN
Settings: not given
It is filed as biochemical. The source says:
The IC50 values in the Table below represent the average value from three experimental determinations.
These IC50 values represent the average value from three experimental determinations.
For orientation: pIC50 means −log10 of the IC50, conventionally taken in molar units. As for `CN(c1nc(CC(=O)N2CCC(=O)CC2)nc2sc3c(c12)CCCC3)C1CC1` [Compound 14, 1-{2-[4-(Cyclopropyl-methyl-amino)-5,6,7,8-tetrahydro-benzo[4,5]thieno[2,3-d]pyrimidin-2-yl]-acetyl}-piperidin-4-one], the pIC50 was more than 6.00.

Still in this assay, the particulars now being: average value from three experimental determinations; read-out: USP14 IC50.
For the compound `CNC(=O)Cc1nc(N(C)C2CC2)c2c3c(sc2n1)CCCC3` [Compound 1, 2-(4-(Cyclopropyl(methyl)amino)-5,6,7,8-tetrahydrobenzo[4,5]thieno[2,3-d]pyrimidin-2-yl)-N-methylacetamide], the pIC50 was 5.96.
The same measure, in the same setting: in the case of `CN(c1nc(CC(=O)O)nc2sc3c(c12)CCCC3)C1CC1` [Compound 2, 2-(4-(Cyclopropyl(methyl)amino)-5,6,7,8-tetrahydrobenzo[4,5]thieno[2,3-d]pyrimidin-2-yl)acetic acid] it was 5.80; in that of `CN(C)C(=O)Cc1nc(N(C)C2CC2)c2c3c(sc2n1)CCCC3` [Compound 3, 2-(4-(Cyclopropyl(methyl)amino)-5,6,7,8-tetrahydrobenzo[4,5]thieno[2,3-d]pyrimidin-2-yl)-N,N-dimethylacetamide], 6.30.
Still for that read-out and setting: in the case of `COCc1nc(N(C)C2CC2)c2c3c(sc2n1)CCCC3` [Compound 4, Cyclopropyl-(2-methoxymethyl-5,6,7,8-tetrahydro-benzo[4,5]thieno[2,3-d]pyrimidin-4-yl)-methyl-amine] it was 5.12.

The assay is the same for the next values; noted with them: average value from three experimental determinations; reported as potency bands; read-out: IC50 (USP14 inhibition).
Take `CN(c1nc(CC(N)=O)nc2sc3c(c12)CCCC3)C1CC1` [Compound 5, 2-(4-(Cyclopropyl(methyl)amino)-5,6,7,8-tetrahydrobenzo[4,5]thieno[2,3-d]pyrimidin-2-yl)acetamide]: the pIC50 was more than 6.00.
Same read-out and setting: the same measure for `CN(c1nc(CC(=O)N2CCCC2)nc2sc3c(c12)CCCC3)C1CC1` [Compound 6, 2-[4-(Cyclopropyl-methyl-amino)-5,6,7,8-tetrahydro-benzo[4,5]thieno[2,3-d]pyrimidin-2-yl]-1-pyrrolidin-1-yl-ethanone]: more than 6.00; for `CN(c1nc(CC(=O)N2CCC(F)(F)C2)nc2sc3c(c12)CCCC3)C1CC1` [Compound 7, 2-[4-(Cyclopropyl-methyl-amino)-5,6,7,8-tetrahydro-benzo[4,5]thieno[2,3-d]pyrimidin-2-yl]-1-(3,3-difluoro-pyrrolidin-1-yl)-ethanone]: 5.30 to 6.00.
Still for that read-out and setting: in the case of `CN(C)C1CCN(C(=O)Cc2nc(N(C)C3CC3)c3c4c(sc3n2)CCCC4)C1` (stereo not drawn) [Compound 8, 2-[4-(Cyclopropyl-methyl-amino)-5,6,7,8-tetrahydro-benzo[4,5]thieno[2,3-d]pyrimidin-2-yl]-1-(3-dimethylamino-pyrrolidin-1-yl)-ethanone] it was more than 6.00; in that of `CN(c1nc(CC(=O)N2CCOCC2)nc2sc3c(c12)CCCC3)C1CC1` [Compound 9, 2-[4-(Cyclopropyl-methyl-amino)-5,6,7,8-tetrahydro-benzo[4,5]thieno[2,3-d]pyrimidin-2-yl]-1-morpholin-4-yl-ethanone], more than 6.00; in that of `CN1CCN(C(=O)Cc2nc(N(C)C3CC3)c3c4c(sc3n2)CCCC4)CC1` [Compound 10, 2-[4-(Cyclopropyl-methyl-amino)-5,6,7,8-tetrahydro-benzo[4,5]thieno[2,3-d]pyrimidin-2-yl]-1-(4-methyl-piperazin-1-yl)-ethanone], more than 6.00.
In the case of `CN(c1nc(CC(=O)N2CCC(F)(F)CC2)nc2sc3c(c12)CCCC3)C1CC1` [Compound 11, 2-[4-(Cyclopropyl-methyl-amino)-5,6,7,8-tetrahydro-benzo[4,5]thieno[2,3-d]pyrimidin-2-yl]-1-(4,4-difluoro-piperidin-1-yl)-ethanone], the pIC50 was 5.30 to 6.00.
On the same count and under the same terms, the same measure for `CN(c1nc(CC(=O)N2CC(O)C2)nc2sc3c(c12)CCCC3)C1CC1` [Compound 12, 2-(4-(Cyclopropyl(methyl)amino)-5,6,7,8-tetrahydrobenzo[4,5]thieno[2,3-d]pyrimidin-2-yl)-1-(3-hydroxyazetidin-1-yl)ethanone]: more than 6.00; for `CC(=O)N1CCN(C(=O)Cc2nc(N(C)C3CC3)c3c4c(sc3n2)CCCC4)CC1` [Compound 13, 1-(4-Acetyl-piperazin-1-yl)-2-[4-(Cyclopropyl-methyl-amino)-5,6,7,8-tetrahydro-[1]benzothieno[2,3-d]pyrimidin-2-yl]-ethanone]: more than 6.00.
Take `CN(c1nc(CC(=O)N2CCC2)nc2sc3c(c12)CCCC3)C1CC1` [Compound 15, 1-(Azetidin-1-yl)-2-(4-(cyclopropyl(methyl)amino)-5,6,7,8-tetrahydrobenzo[4,5]thieno[2,3-d]pyrimidin-2-yl)ethanone]: the pIC50 was more than 6.00.
For `CN(c1nc(CC(=O)NCc2ccncc2)nc2sc3c(c12)CCCC3)C1CC1` [Compound 16], the pIC50 is 5.30 to 6.00.
The same measure, in the same setting: in the case of `CN(c1nc(CC(=O)NCCc2ccccn2)nc2sc3c(c12)CCCC3)C1CC1` [Compound 17] it was 5.30 to 6.00; in that of `CN(c1nc(CC(=O)NCc2ccccn2)nc2sc3c(c12)CCCC3)C1CC1` [Compound 18], 5.30 to 6.00; in that of `CN(c1nc(CC(=O)NCc2cccnc2)nc2sc3c(c12)CCCC3)C1CC1` [Compound 19], 5.30 to 6.00.
On the same count and under the same terms, in the case of `CN(c1nc(CC(=O)N2CC[C@H](C(C)(C)O)C2)nc2sc3c(c12)CCCC3)C1CC1` [Compound 20, (S)-2-(4-(Cyclopropyl(methyl)amino)-5,6,7,8-tetrahydrobenzo[4,5]thieno[2,3-d]pyrimidin-2-yl)-1-(3-(2-hydroxypropan-2-yl)pyrrolidin-1-yl)ethanone] it was more than 6.00; in that of `CN(c1nc(CC(=O)Nc2ccon2)nc2sc3c(c12)CCCC3)C1CC1` [Compound 21], 5.30 to 6.00; in that of `CN(c1nc(CC(=O)NCCc2ccncc2)nc2sc3c(c12)CCCC3)C1CC1` [Compound 22], less than 5.30.
Same read-out and setting: the same measure for `CN(c1nc(CC(=O)NCCc2cccnc2)nc2sc3c(c12)CCCC3)C1CC1` [Compound 23]: 5.30 to 6.00; for `CN(c1nc(CC(=O)N2CC[C@H](N(C)C)C2)nc2sc3c(c12)CCCC3)C1CC1` [Compound 24, 2-[4-(Cyclopropyl-methyl-amino)-5,6,7,8-tetrahydrobenzo[4,5]thieno[2,3-d]pyrimidin-2yl]-1-((S)-3-dimethylamino-pyrrolidin-1-yl)-ethanone]: more than 6.00.
As for `CN(c1nc(CC(=O)N2CCC(S(C)(=O)=O)C2)nc2sc3c(c12)CCCC3)C1CC1` (stereo not drawn) [Compound 25, 2-[4-(Cyclopropyl-methyl-amino)-5,6,7,8-tetrahydro-benzo[4,5]thieno[2,3-d]pyrimidin-2yl]-1-(3-methanesulfonyl-pyrrolidin-1-yl)-ethanone], the pIC50 was more than 6.00.
Still for that read-out and setting: in the case of `CN(c1nc(CC(=O)N2CCCCC2)nc2sc3c(c12)CCCC3)C1CC1` [Compound 26, 2-[4-(Cyclopropyl-methyl-amino)-5,6,7,8-tetrahydro-benzo[4,5]thieno[2,3-d]pyrimidin-2yl]-1-piperidin-1-yl-ethanone] it was 5.30 to 6.00; in that of `CN(c1nc(CC(=O)N2CCC(O)CC2)nc2sc3c(c12)CCCC3)C1CC1` [Compound 27, 2-[4-(Cyclopropyl-methyl-amino)-5,6,7,8-tetrahydro-benzo[4,5]thieno[2,3-d]pyrimidin-2-yl]-1-(4-hydroxy-piperidin-1-yl)-ethanone], more than 6.00; in that of `CC(C)NC(=O)Cc1nc(N(C)C2CC2)c2c3c(sc2n1)CCCC3` [Compound 28, 2-[4-(Cyclopropyl-methyl-amino)-5,6,7,8-tetrahydro-benzo[4,5]thieno[2,3-d]pyrimidin-2-yl]-N-isopropyl-acetamide], 5.30 to 6.00.
On to `CN(c1nc(CC(=O)N2CCC(O)C2)nc2sc3c(c12)CCCC3)C1CC1` (stereo not drawn) [Compound 29, 2-[4-(Cyclopropyl-methyl-amino)-5,6,7,8-tetrahydro-benzo[4,5]thieno[2,3-d]pyrimidin-2-yl]-1-(3-hydroxy-pyrrolidin-1-yl)-ethanone], for which the pIC50 is more than 6.00.
Same read-out and setting: the same measure for `CN(c1nc(CC(=O)N2CC[C@@H](N(C)C)C2)nc2sc3c(c12)CCCC3)C1CC1` [Compound 30, 2-[4-(Cyclopropyl-methyl-amino)-5,6,7,8-tetrahydro-benzo[4,5]thieno[2,3-d]pyrimidin-2-yl]-1-((R)-3-dimethylamino-pyrrolidin-1-yl)-ethanone]: more than 6.00.
The same measure, in the same setting: the same measure for `CN(c1nc(CC(=O)N2CCC(C(N)=O)CC2)nc2sc3c(c12)CCCC3)C1CC1` [Compound 31, 1-{2-[4-(Cyclopropyl-methyl-amino)-5,6,7,8-tetrahydro-benzo[4,5]thieno[2,3-d]pyrimidin-2-yl]-acetyl}-piperidine-4-carboxylic acid amide]: more than 6.00; for `CN(c1nc(CC(=O)N2CCC(N3CCOCC3)CC2)nc2sc3c(c12)CCCC3)C1CC1` [Compound 32, 2-[4-(Cyclopropyl-methyl-amino)-5,6,7,8-tetrahydro-benzo[4,5]thieno[2,3-d]pyrimidin-2-yl]-1-(4-morpholin-4-yl-piperidin-1-yl)-ethanone]: more than 6.00.
Still for that read-out and setting: in the case of `CN(c1nc(CC(=O)N2CCCC(O)C2)nc2sc3c(c12)CCCC3)C1CC1` (stereo not drawn) [Compound 33, 2-[4-(Cyclopropyl-methyl-amino)-5,6,7,8-tetrahydro-benzo[4,5]thieno[2,3-d]pyrimidin-2-yl]-1-(3-hydroxy-piperidin-1-yl)-ethanone] it was more than 6.00.
For the compound `CCNC(=O)Cc1nc(N(C)C2CC2)c2c3c(sc2n1)CCCC3` [Compound 34, 2-[4-(Cyclopropyl-methyl-amino)-5,67,8-tetrahydro-benzo[4,5]thieno[2,3-d]pyrimidin-2-yl]-N-ethyl-acetamide], the pIC50 was 5.30 to 6.00.
Still for that read-out and setting: in the case of `CN(c1nc(CC(=O)NCCC(C)(C)O)nc2sc3c(c12)CCCC3)C1CC1` [Compound 35, 2-[4-(Cyclopropyl-methyl-amino)-5,6,7,8-tetrahydro-benzo[4,5]thieno[2,3-d]pyrimidin-2-yl]-N-(3-hydroxy-3-methyl-butyl)-acetamide] it was 5.30 to 6.00.
Take `CN(c1nc(CC(=O)N2CCC(CO)C2)nc2sc3c(c12)CCCC3)C1CC1` (stereo not drawn) [Compound 36, 2-[4-(Cyclopropyl-methyl-amino)-5,6,7,8-tetrahydro-benzo[4,5]thieno[2,3-d]pyrimidin-2-yl]-1-(3-hydroxymethyl-pyrrolidin-1-yl)-ethanone]: the pIC50 is more than 6.00.
